{
  "source": "patent US9815878B2",
  "about": "“Use of PEDF-derived polypeptides for preventing and/or ameliorating skin aging” (MacKay Memorial Hospital, priority 2012, dated 2017)",
  "format_in_all_cases": "cell-based",
  "settings_in_all_cases": "100 nM for 24 hours, data not shown",
  "key": {"[1]": {"system": "Human dermal fibroblasts (WS-1 cells)", "experiment": "Cell migration of WS-1 cells, transwell assay", "from_the_text": "(§1) According to our preliminary study, cell viability was greater than 95% relative to that of the control after exposure to 15 mJ/cm^2 UVB irradiation (data not shown). […] Therefore, the exposure dose was set at 15 mJ/cm^2 in the following experiment."}, "[2]": {"system": "Human dermal fibroblasts (WS-1 cells)", "experiment": "Cell viability of WS-1 cells pretreated with peptide", "from_the_text": "as §1"}, "[3]": {"system": "primary mouse dermal fibroblasts", "experiment": "Cell viability of primary mouse dermal fibroblasts pretreated with peptide", "from_the_text": "as §1"}, "[4]": {"system": "primary mouse dermal fibroblasts", "experiment": "Cell migration of primary mouse dermal fibroblasts, transwell assay"}},
  "data": [
    {"substance": "Ac-SLGAEQRTESIIHRALYYDLISSPDIHGT-NH2 [29-mer]", "values": [
      {"measurement": "cell migration", "setting": "[1]", "value": "did not cause any significant change in cell migration"},
      {"measurement": "cell viability", "setting": "[2]", "value": "did not cause any significant change in cell viability"},
      {"measurement": "cell viability", "setting": "[3]", "value": "did not cause any significant change in cell viability"},
      {"measurement": "cell migration", "setting": "[4]", "value": "did not cause any significant change in cell migration"}
    ]}
  ]
}
